Test results reported in US7326803B2, “Ligand inhibitors of the RAR receptors, process for preparing same and therapeutic/cosmetic applications thereof” (Galderma Research & Development, priority 2002, dated 2008).

Assays:
Format in all cases: cell-based
RAR alpha = molecular target: T1, RAR alpha (Homo sapiens, UniProt P10276); assay: Transactivation test (luciferase reporter, HeLa cells), RAR alpha; settings: HeLa stable transfectants; for Kd: Schild regression against reference agonist 4-[2-(5,5,8,8-tetramethyl-5,6,7,8-tetrahydro-2-naphthyl)propenyl]benzoic acid, read-out: RAR alpha Kdapp; for IC50: reference ligand at the concentration that gives 80% activation
T1 sequence (P10276 183-417 limits assumed): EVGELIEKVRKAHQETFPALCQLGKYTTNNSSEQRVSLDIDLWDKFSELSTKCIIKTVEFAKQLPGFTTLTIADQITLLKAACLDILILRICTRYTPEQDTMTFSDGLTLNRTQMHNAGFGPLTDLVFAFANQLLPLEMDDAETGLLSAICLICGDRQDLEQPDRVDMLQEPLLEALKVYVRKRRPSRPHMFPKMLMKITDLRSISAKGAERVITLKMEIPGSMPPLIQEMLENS
Description: (§1) The activation of receptors with an agonist (activator) in HeLa cells leads to the expression of a reporter gene, luciferase, which, in the presence of a substrate, generates light. The activation of the receptors may thus be measured by quantifying the luminescence produced after incubating the cells in the presence of a reference agonist. The inhibitory products displace the agonist from its site, thus preventing activation of the receptor. The activity is measured by quantifying the reduction in light produced. This measurement makes it possible to determine the inhibitory activity of the compounds according to the invention.
(§2) Determination of the Kdapp:
(§3) In this study, a constant is determined which represents the affinity of the molecule for the receptor. Since this value can fluctuate depending on the basal activity and the expression of the receptor, it is referred to as the Kdapparent (KdApp).
(§4) To determine this constant, “crossed curves” of the test product against a reference agonist, 4-[2-(5,5,8,8-tetramethyl-5,6,7,8-tetrahydro-2-naphthyl)propenyl]benzoic acid, are performed in 96-well plates. The test product is used at 10 concentrations and the reference agonist at 7 concentrations. In each well, the cells are in contact with a concentration of the test product and a concentration of the reference agonist, 4-[2-(5,5,8,8-tetramethyl-5,6,7,8-tetrahydro-2-naphthyl)propenyl]benzoic acid. Measurements are also taken for the total agonist (4-[2-(5,5,8,8-tetramethyl-5,6,7,8-tetrahydro-2-naphthyl)propenyl]benzoic acid) and inverse agonist, 4-{(E)-3-[4-(4-tert-butylphenyl)-5,5,8,8-tetramethyl-5,6,7,8-tetrahydro-2-naphthyl]-3-oxopropenyl}benzoic acid, controls.
(§5) These crossed curves make it possible to determine the AC50 values (concentration at which 50% activation is observed) for the reference ligand at various concentrations of test product. These AC50 values are used to calculate the Schild regression by plotting a straight line corresponding to the Schild equation (“quantitation in receptor pharmacology” Terry P. Kenakin, Receptors and Channels, 2001, 7, 371-385).
(§6) In the case of an antagonist, an IC50 value (concentration that inhibits 50% of the activity) is calculated by plotting the curve of the product at the concentration of the reference ligand that gives 80% activation.
(§7) The HeLa cell lines used are stable transfectants containing the plasmids ERE-βGlob-Luc-SV-Neo (reporter gene) and RAR (α, β, γ) ER-DBD-puro. These cells are inoculated into 96-well plates at a rate of 10 000 cells per well in 100 μl of DMEM medium without phenol red, and supplemented with 10% defatted calf serum. The plates are then incubated at 37° C. and 7% CO2 for 4 hours.
(§8) The various dilutions of the test products, of the reference ligand (4-[2-(5,5,8,8-tetramethyl-5,6,7,8-tetrahydro-2-naphthyl)propenyl]benzoic acid), of the 100% control (100 nM 4-[2-(5,5,8,8-tetramethyl-5,6,7,8-tetrahydro-2-naphthyl)propenyl]benzoic acid) and of the 0% control (500 nM 4-{(E)-3-[4-(4-tert-butylphenyl)-5,5,8,8-tetramethyl-5,6,7,8-tetrahydro-2-naphthyl]-3-oxopropenyl}benzoic acid) are added at a rate of 5 μl per well. The plates are then incubated for 18 hours at 37° C. and 7% CO2.
(§9) The culture medium is removed by turning over and 100 μl of a 1:1 PBS/luciferine mixture is added to each well. After 5 minutes, the plates are read using the luminescence detector.

RAR beta = molecular target: T2, RAR beta (Homo sapiens, UniProt P10826); assay: Transactivation test (luciferase reporter, HeLa cells), RAR beta; settings: HeLa stable transfectants; for Kd: Schild regression against reference agonist 4-[2-(5,5,8,8-tetramethyl-5,6,7,8-tetrahydro-2-naphthyl)propenyl]benzoic acid, read-out: RAR beta Kdapp; for IC50: reference ligand at the concentration that gives 80% activation
T2 sequence (P10826 183-417 limits assumed): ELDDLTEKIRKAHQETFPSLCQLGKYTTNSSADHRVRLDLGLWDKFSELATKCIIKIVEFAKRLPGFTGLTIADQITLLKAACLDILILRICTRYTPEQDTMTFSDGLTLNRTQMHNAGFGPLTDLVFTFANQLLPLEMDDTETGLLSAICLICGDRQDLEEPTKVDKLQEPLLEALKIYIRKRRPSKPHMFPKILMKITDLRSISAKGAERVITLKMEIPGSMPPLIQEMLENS
Description: as §1, §2, §3, §4, §5, §6, §7, §8, §9

RAR gamma = molecular target: T3, RAR gamma (Homo sapiens, UniProt P13631); assay: Transactivation test (luciferase reporter, HeLa cells), RAR gamma; settings: HeLa stable transfectants; for Kd: Schild regression against reference agonist 4-[2-(5,5,8,8-tetramethyl-5,6,7,8-tetrahydro-2-naphthyl)propenyl]benzoic acid, read-out: RAR gamma Kdapp; for IC50: reference ligand at the concentration that gives 80% activation
T3 sequence (P13631 185-419 limits assumed): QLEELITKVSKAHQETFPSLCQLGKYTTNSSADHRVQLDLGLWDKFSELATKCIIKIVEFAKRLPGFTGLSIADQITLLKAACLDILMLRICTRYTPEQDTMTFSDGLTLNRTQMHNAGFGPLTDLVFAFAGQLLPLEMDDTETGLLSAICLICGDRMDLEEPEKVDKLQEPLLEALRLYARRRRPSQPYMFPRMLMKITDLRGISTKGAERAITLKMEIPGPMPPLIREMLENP
Description: as §1, §2, §3, §4, §5, §6, §7, §8, §9

Compound CC1(C)CCC(C)(C)c2c(OCc3cccc(F)c3)cc([Se]C#Cc3ccc(C(=O)O)cc3)cc21 [Ex 1, 4-[4-(3-fluorobenzyloxy)-5,5,8,8-tetramethyl-5,6,7,8-tetrahydro-2-naphthylselanylethynyl]benzoic acid] has a Kd (RAR alpha) of 8 nM, an IC50 (RAR alpha) of 14 nM and a Kd (RAR beta) of 4 nM. It also gave an IC50 (RAR beta) of 6.5 nM, a Kd (RAR gamma) of 2 nM and an IC50 (RAR gamma) of 5 nM.
CC(C)(C)c1ccc(COc2cc([Se]C#Cc3ccc(C(=O)O)cc3)cc3c2C(C)(C)CCC3(C)C)cc1 [Ex 3, 4-[4-(4-tert-butylbenzyloxy)-5,5,8,8-tetramethyl-5,6,7,8-tetrahydro-2-naphthylselanylethynyl]benzoic acid] gave a Kd (RAR alpha) of 15 nM, an IC50 (RAR alpha) of 26.3 nM and a Kd (RAR beta) of 30 nM. The IC50 (RAR beta) was 48 nM, the Kd (RAR gamma) was 4 nM and the IC50 (RAR gamma) was 10 nM.
CC1(C)CCC(C)(C)c2c(OCc3ccc(F)c(F)c3)cc([Se]C#Cc3ccc(C(=O)O)cc3)cc21 [Ex 4, 4-[4-(3,4-difluorobenzyloxy)-5,5,8,8-tetramethyl-5,6,7,8-tetrahydro-2-naphthylselanylethynyl]benzoic acid] gave a Kd (RAR alpha) of 2 nM, an IC50 (RAR alpha) of 3.5 nM and a Kd (RAR beta) of 4 nM. It also gave an IC50 (RAR beta) of 6.4 nM, a Kd (RAR gamma) of 1 nM and an IC50 (RAR gamma) of 2.5 nM.
In the case of CC1(C)CCC(C)(C)c2c(OCc3ccc(F)cc3F)cc([Se]C#Cc3ccc(C(=O)O)cc3)cc21 [Ex 5, 4-[4-(2,4-difluorobenzyloxy)-5,5,8,8-tetramethyl-5,6,7,8-tetrahydro-2-naphthylselanylethynyl]benzoic acid], the Kd (RAR alpha) is reported as 2 nM, the IC50 (RAR alpha) is reported as 3.5 nM and the Kd (RAR beta) is reported as 1 nM. It also gave an IC50 (RAR beta) of 1.6 nM, a Kd (RAR gamma) of 1 nM and an IC50 (RAR gamma) of 2.5 nM.
For Cc1cccc(COc2cc([Se]C#Cc3ccc(C(=O)O)cc3)cc3c2C(C)(C)CCC3(C)C)c1 [Ex 10, 4-[5,5,8,8-tetramethyl-4-(3-methylbenzyloxy)-5,6,7,8-tetrahydro-2-naphthylselanylethynyl]benzoic acid], the Kd (RAR alpha) was 30 nM, the IC50 (RAR alpha) was 52.5 nM and the Kd (RAR beta) was 15 nM. The IC50 (RAR beta) was 24 nM, the Kd (RAR gamma) was 4 nM and the IC50 (RAR gamma) was 10 nM.
For CC1(C)CCC(C)(C)c2c(OCc3ccc(F)cc3)cc([Se]C#Cc3ccc(C(=O)O)cc3)cc21 [Ex 11, 4-[5,5,8,8-tetramethyl-4-(4-fluorobenzyloxy)-5,6,7,8-tetrahydro-2-naphthylselanylethynyl]benzoic acid], the Kd (RAR alpha) was 8 nM, the IC50 (RAR alpha) was 14 nM and the Kd (RAR beta) was 4 nM. It also gave an IC50 (RAR beta) of 6.4 nM, a Kd (RAR gamma) of 1 nM and an IC50 (RAR gamma) of 2.5 nM.
